# Source: BindingDB's records for doi:10.1021/jm00112a042 (Zambeletti Research Laboratories, 1991)
# Several values for one entry are separate records, joined by “and”; a condition that tells them apart may be missing. Equal entries are not always repeated.
# Assay: Affinity for opioid receptor delta sites
row,SMILES,Ki [µM]
1,O=C(Cc1ccc(Cl)c(Cl)c1)N1CCc2sccc2C1CN1CCCC1 (stereo unspecified),0.153
2,O=C(Cc1ccc(Cl)c(Cl)c1)N1CCc2[nH]c3ccccc3c2C1CN1CCCC1 (stereo unspecified),> 1
3,O=C(Cc1ccc(Cl)c(Cl)c1)N1CCc2sccc2C1CN1CCCCC1 (stereo unspecified),> 1
4,O=C(Cc1ccc(Cl)c(Cl)c1)N1CCc2ccsc2C1CN1CCCC1 (stereo unspecified),0.362
5,O=C(Cc1ccc(C(F)(F)F)cc1)N1CCc2sccc2C1CN1CCCCC1 (stereo unspecified),> 1
6,"O=C(Cc1ccc(Cl)c(Cl)c1)N1CCCC[C@H]1CN1CCCC1 [2-(3,4-Dichloro-phenyl)-1-(2-pyrrolidin-1-ylmethyl-piperidin-1-yl)-ethanone]",1

# Assay: Binding affinity was measured on opioid receptor delta sites.
row,SMILES,Ki
1,O=C(Cc1ccc(C(F)(F)F)cc1)N1CCc2ccccc2C1CN1CCCCC1 (stereo unspecified),> 1 µM
2,O=C(Cc1ccc(Cl)c(Cl)c1)N1CCc2c([nH]c3ccccc23)C1CN1CCCC1 (stereo unspecified),> 1 µM
3,CN(C)CC1c2ccccc2CCN1C(=O)Cc1ccc(Cl)c(Cl)c1 (stereo unspecified),0.746 µM
4,O=C(Cc1ccc(C(F)(F)F)cc1)N1CCc2ccccc2[C@H]1CN1CCCC1,> 1 µM and 0.149 µM
5,O=C(Cc1ccc(C(F)(F)F)cc1)N1CCCC[C@H]1CN1CCCC1 [1-(2-Pyrrolidin-1-ylmethyl-piperidin-1-yl)-2-(4-trifluoromethyl-phenyl)-ethanone],1 µM
